Measured values taken from PMC5766608, “Target engagement imaging of PARP inhibitors in small-cell lung cancer” (Nature Communications, 2018).
Entries after “also recorded” stand apart in the source; their conditions may differ.

Experiments:
Type in all cases: cell-based, human
JHU-LX22 cells = experiment: Cytotoxicity, Alamar Blue assay; conditions: 24-96 h
Description: […]. Cells were plated in 96-well plates (black, clear-bottom, Corning Incorporated) at a density of 5,000 cells/well and allowed them to attach for 24 h. All compounds were prepared as 10 mM stock solutions in DMSO and further diluted in media. Cells were treated with 0, 2, 5, and 10 µM (final solutions containing 1% DMSO) of each compound for 24, 48, 72 and 96 h. Then, media was removed and Alamar Blue reagent was added to each well. Plates were incubated at 37 °C for 4 h under protection from direct light. Fluorescence was read (bottom-read mode) using an excitation wavelength of 570 nm and an emission wavelength of 585 nm on a SpectraMax M5 microplate reader (Molecular Devices, Sunnyvale, CA, USA). The average reading values were analyzed by subtracting the background readings (wells with Alamar Blue but without cells) and compared against the untreated controls of each plate (defined as 100% viability) to determine the percentage of living cells. The experiment was carried out in three biological replicates with four parallels of each compound.
Supplementary Figure 9 | In vitro toxicity of the tested PARP inhibitors and imaging tracers on JHU-LX22 cells. (a) Assessment of viable cell population during flow cytometry after a 2 hour incubation time of several PARP inhibitors at concentrations between 0 and 5 µM. (b) Cell viability determination using Alamar Blue assays. Cells were incubated with 0, 0.2, 2, 5 or 10 µM of each compound for 24, 48, 72 or 96 h and cell viability was assessed using the Alamar Blue assay. (c) IC values derived from Alamar Blue assays at 72 h and 96 h.
Viability data represent means from three independent experiments, each with four parallels of each sample. Error bars represent the standard error (SEM). […]

PARylation in LX22 cells = experiment: PARylation inhibition assay (western blot for PAR); conditions: 0.1 µM, 30 min incubation
Description: Whole cell lysates were prepared by incubating cells with RIPA Buffer with Triton X (BP-140, Boston BioProducts) containing Protease Inhibitor (Complete EASYpacks, Sigma-Aldrich) for 30 min on ice, followed by 30 min centrifugation at 10,000 × g for 30 min at 4 °C. Protein concentration of lysates was determined using a Bicinchoninic acid (BCA) assay kit (#23225, Pierce) and following the manufacturers instructions. SDS gel electrophoresis and immunoblotting were carried out following standard procedures. Signal detection was carried out using chemiluminescent substrate (#34077, Thermo Scientific). Densitometric analysis of western blots was carried out using ImageJ (NIH). To detect PAR, we used a rabbit polyclonal anti-PAR polymer antibody (1:1000 dilution, #4336-BPC-100, Trevigen) followed by a goat anti-rabbit IgG-HRP secondary antibody (1:10,000 dilution, sc-2004, SantaCruz). B-actin was used as loading control (1:1000 dilution, A3854, Sigma-Aldrich) and was stained after stripping the blot for 30 min at room temperature using stripping buffer (Amresco).
Supplementary Figure 3 | PARylation inhibition assay.
PARPi-FL and [18F]PARPi quantify PARP inhibition, we compared their ability to inhibit PARylation
in comparison with olaparib.
inhibition. At 1 µM, the PAR signal for all three compounds is nearly completely eliminated.

PARP1/2 [1] = experiment: Blocking of PARPi-FL uptake by PARP inhibitors (confocal microscopy, flow cytometry); conditions: JHU-LX22 cells
Description: (§1) Cells were then treated with fluorescent imaging agent PARPi-FL and either imaged via confocal microscopy or measured via flow cytometry. […] Then, cells were trypsinized, subjected to flow cytometry and analyzed for the relative PARPi-FL fluorescence signal. […] Error bars represent the SD of three independent experiments with three parallels each
We conducted confocal laser scanning microscopy to visualize the extent of intracellular blocking of PARPi-FL uptake by different PARPi. […] PARPi-FL was removed and cells were washed in fresh medium for 10 min. Next, cells were treated with 4% Paraformaldehyde (PFA) for 8 min on ice to ensure fixation. […] PARPi-FL intensity was determined by measuring the PARPi-FL fluorescence intensity in all nuclei, which were thresholded using Hoechst staining.
(§2) After the respective treatment/staining, which is described below for the different experiments, cells were washed in PBS, trypsinized, washed with flow buffer (1% BSA (w/v) in PBS), transferred to 5 mL flow cytometry tubes through the 40 µm cell strainer cap and left on ice until measurement in the flow cytometer (Fortessa II). Raw data were processed in FlowJo software in order to calculate PARPi-FL uptake per cell. Dead cells were excluded by eliminating DAPI positive cells from the analysis (Supplementary Fig. 8). Cell clumps and debris were eliminated using the corresponding gates (forward and side scatter) for the unstained cell population. PARPi-FL fluorescence was imaged in the FITC channel against side scatter (area).
Controls (cells incubated with medium instead of a PARP inhibitor) served as reference value and their PARPi-FL signal was defined as 100%.
To quantify the extent of blocking of PARPi-FL uptake by different PARPi, we quantified the intracellular PARPi-FL uptake in JHU-LX22 cells after incubation with PARP inhibitors.

PARP1/2 [2] = experiment: In vitro binding kinetics by recovery of PARPi-FL binding (flow cytometry); conditions: JHU-LX22 cells, 0.2 µM inhibitor 25 min, washed, 0-48 h post-incubation, two phase decay fit
Description: as §1, §2
We furthermore determined the duration of PARPi binding to their target site. […] Then, cells were subjected to flow cytometry as described above. […] We determined the duration of binding of the PARPi indirectly by calculating the recovery of PARP-FL binding with increasing times between PARPi and PARPi-FL treatment. Decay curves were calculated with Prism using two phase decay least squares regression.

`CC1=CC(C)=[N+]2C1=Cc1ccc(CCC(=O)N3CCN(C(=O)c4cc(Cc5n[nH]c(=O)c6ccccc56)ccc4F)CC3)n1[B-]2(F)F` [PARPi-FL] was tested, and the “Effect on JHU-LX22 cell viability, in words” value (“Effect” for short) (JHU-LX22 cells) was “very similar effects on JHU-LX22 cell viability as other inhibitors; also recorded: very similar effects on JHU-LX22 cell viability as olaparib” and the “Inhibition of PARylation (PAR signal)” value (PARylation in LX22 cells) was “reduced PAR signal, but not complete”.
In the case of `Cn1ncnc1[C@H]1c2n[nH]c(=O)c3cc(F)cc(c23)N[C@@H]1c1ccc(F)cc1` [Talazoparib, (8S,9R)-5-Fluoro-8-(4-fluorophenyl)-9-(1-methyl-1H-1,2,4-triazol-5-yl)-2,7,8,9-tetrahydro-3H-pyrido[4,3,2-de]phthalazin-3-one], the “Effect” value (JHU-LX22 cells) is reported as “most sensitive”, the “Blocking of PARPi-FL uptake / target engagement, in words” value (PARP1/2 [1]; pretreatment with inhibitor, then PARPi-FL) is reported as “most complete target engagement” and the “Retention on PARP1/2 binding sites, in words” value (PARP1/2 [2]) is reported as “longest retention”.
In the case of `O=C(c1ccc(F)cc1)N1CCN(C(=O)c2cc(Cc3n[nH]c(=O)c4ccccc34)ccc2F)CC1` [^19F-PARPi], the “Effect” value (JHU-LX22 cells) is reported as “very similar effects on JHU-LX22 cell viability as other inhibitors; also recorded: very similar effects on JHU-LX22 cell viability as olaparib”, the “Blocking of PARPi-FL uptake” value (PARP1/2 [1]; pretreatment with PARP inhibitor 25 min, then PARPi-FL 15 min) is reported as “more than 50%” and the “Inhibition of PARylation (PAR signal)” value (PARylation in LX22 cells) is reported as “nearly complete inhibition”. For the same molecule, the “Retention on PARP1/2 binding sites, in words” value (PARP1/2 [2]) was “longest retention”.
